Measured values reported in patent US6858638B2, “Substituted indazoles, compositions containing them, method of production and use” (Aventis Pharma S.A., priority 2002, dated 2005).

Columns and labels:
[1] = target: T1, human KDR enzyme (Homo sapiens, UniProt P35968); test: KDR substrate (PLCγ) phosphorylation, scintillation assay; assay type: biochemical; settings: 10 μM; read-out: KDR % inhib at 10 μM
T1 construct: The cytoplasmic domain of the human KDR enzyme; GST; made in house; host or cells: SF21 insect cells (baculovirus)
In short: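 Values are percent inhibition relative to the compound-free control, read by scintillation counting of 33P incorporation after EDTA stop. Baculovirus/SF21-expressed GST-KDR cytoplasmic domain (100 ng) acted for 1 h at 37 °C in pH 7.2 MOPS kinase buffer. The substrate was GST-PLCγ SH2-SH3 (2 μg), added with γ33P-ATP and 2 μM unlabeled ATP.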

[2] = system: c-Src protein; test: Src kinase phosphorylation of biotinylated cdc2 substrate, fluorescence (DELFIA); assay type: biochemical, human
Method: The inhibition of the Src kinase is evaluated by measuring the phosphorylation of the biotinylated cdc2 substrate (Pierce) detected by fluorescence (DELFIA) using an antiphosphotyrosine antibody labeled with Europium, in 96-well Wallac plates. The c-Src protein used is a recombinant human protein produced in Baculovirus, comprising the SH3 and SH2 and the catalytic domains. The enzyme, the substrate and the various concentrations of test compounds are placed in the well in a 50 mM Tris buffer containing 10 mM MgCl2. The reaction is initiated by adding 10 μM of ATP. After incubation for 60 minutes at 30° C., the reaction is stopped by adding 75 mM EDTA. 50 μl are taken from each well and transferred into a plate coated with streptavidin. After incubation for 30 minutes at 25° C., the wells are washed with a washing buffer (Wallac) and then the antiphosphotyrosine antibody (PY20-Europium [Perkin Elmer]) is added in a volume of 75 μl. The plate is incubated for 30 minutes at 25° C. and then an “Enhancer” solution (Wallac) is added before reading the fluorescence using a fluorimeter (Perkin Elmer). The background noise is evaluated in triplicate in wells containing the substrate and the antibody in the absence of enzyme. The activity of the enzyme is measured (in triplicate) in the wells containing all the reagents in the absence of compound. The inhibition of the Src activity is expressed as percentage inhibition of the activity of the control determined in the absence of compound. The compound PP2 (Calbiochem) is included at various concentrations in each experiment as an inhibition control.

T1 sequence (P35968 786-1356 limits assumed): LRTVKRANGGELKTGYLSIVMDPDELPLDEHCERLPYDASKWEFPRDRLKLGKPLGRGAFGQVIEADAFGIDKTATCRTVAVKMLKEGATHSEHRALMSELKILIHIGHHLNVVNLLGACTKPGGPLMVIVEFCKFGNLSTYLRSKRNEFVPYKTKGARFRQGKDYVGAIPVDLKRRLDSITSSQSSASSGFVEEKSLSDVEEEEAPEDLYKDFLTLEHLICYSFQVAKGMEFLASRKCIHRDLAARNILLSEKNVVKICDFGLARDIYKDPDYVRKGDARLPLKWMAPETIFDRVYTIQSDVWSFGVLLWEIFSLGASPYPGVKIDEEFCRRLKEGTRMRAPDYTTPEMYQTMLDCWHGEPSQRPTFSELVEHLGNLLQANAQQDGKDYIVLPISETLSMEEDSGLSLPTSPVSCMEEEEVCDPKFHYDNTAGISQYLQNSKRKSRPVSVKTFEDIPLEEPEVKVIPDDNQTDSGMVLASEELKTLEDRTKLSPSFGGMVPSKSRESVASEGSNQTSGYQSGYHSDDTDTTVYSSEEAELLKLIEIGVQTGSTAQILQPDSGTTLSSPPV

| SMILES | inhibition at 10 µM [1] [%] | melting point [°C] | SRC % inhib at 10 μM [2] [%] |
| --- | --- | --- | --- |
| Nc1n[nH]c2ccc(NS(=O)(=O)c3cccc(F)c3)cc12 [Example 26, N-(3-Amino-1H-indazol-5-yl)-3-fluorobenzenesulfonamide] | 24 | 216 | – |
| COc1ccc(-c2n[nH]c3ccc(NS(=O)(=O)c4ccccc4S(C)(=O)=O)cc23)cc1 [Example 32, N-[3-(4-Methoxyphenyl)-1H-indazol-5-yl]-2-methylsulfonylbenzenesulfonamide] | 87 | 244 | – |
| CS(=O)(=O)c1ccccc1S(=O)(=O)Nc1ccc2[nH]nc(-c3ccc(F)cc3)c2c1 [Example 33, N-[3-(4-Fluorophenyl)-1H-indazol-5-yl]-2-methylsulfonylbenzenesulfonamide] | 68 | 209 | – |
| CS(=O)(=O)c1ccccc1S(=O)(=O)Nc1ccc2[nH]nc(NCc3ccccc3)c2c1 [Example 36, N-(3-Benzylamino-1H-indazol-5-yl)-2-methylsulfonylbenzenesulfonamide] | 23 | 226 | – |
| CNc1n[nH]c2ccc(NS(=O)(=O)c3ccccc3S(C)(=O)=O)cc12 [Example 37, N-(3-Methylamino-1H-indazol-5-yl)-2-methylsulfonylbenzenesulfonamide] | 8 | 220 | – |
| CS(=O)(=O)c1ccccc1S(=O)(=O)Nc1ccc2[nH]nc(N)c2c1 [Example 39, N-(3-Amino-1H-indazol-5-yl)-2-methylsulfonylbenzenesulfonamide] | 20 | 246 | – |
| Nc1n[nH]c2ccc(NS(=O)(=O)c3c(F)cccc3F)cc12 [Example 40, N-(3-Amino-1H-indazol-5-yl)-2,6-difluorobenzenesulfonamide] | 22 | 241 | – |
| Nc1n[nH]c2ccc(NS(=O)(=O)c3c(Cl)cccc3Cl)cc12 [Example 41, N-(3-Amino-1H-indazol-5-yl)-2,6-dichlorobenzenesulfonamide] | 36 | 250 | – |
| Nc1n[nH]c2ccc(NS(=O)(=O)c3cc(F)cc(F)c3)cc12 [Example 42, N-(3-Amino-1H-indazol-5-yl)-3,5-difluorobenzenesulfonamide] | 25 | 232 | – |
| CS(=O)(=O)c1ccccc1S(=O)(=O)Nc1ccc2[nH]nc(-c3ccoc3)c2c1 [Example 52, N-(3-Furan-3-yl-1H-indazol-5-yl)-2-methylsulfonylbenzenesulfonamide] | 49 | 249 | – |
| CS(=O)(=O)c1ccccc1S(=O)(=O)Nc1ccc2[nH]nc(-c3ccco3)c2c1 [Example 53, N-(3-Furan-2-yl-1H-indazol-5-yl)-2-methylsulfonylbenzenesulfonamide] | 42 | 248 | – |
| CS(=O)(=O)c1ccccc1S(=O)(=O)Nc1ccc2[nH]nc(-c3ccncc3)c2c1 [Example 54, 2-Methylsulfonyl-N-(3-pyridin-4-yl-1H-indazol-5-yl)benzenesulfonamide] | 76 | 265 | – |
| COC(=O)c1cccc(-c2n[nH]c3ccc(NS(=O)(=O)c4ccccc4S(C)(=O)=O)cc23)c1 [Example 55, Methyl 3-[5-(2-methylsulfonylbenzenesulfonamino)-1H-indazol-3-yl]benzoate] | 51 | 202 | – |
| CS(=O)(=O)c1ccccc1S(=O)(=O)Nc1ccc2[nH]nc(-c3cc4ccccc4[nH]3)c2c1 [Example 61, N-[3-(1H-Indol-2-yl)-1H-indazol-5-yl]-2-methylsulfonylbenzenesulfonamide] | 98 | – | 99 |
| CN(C)c1ccc(-c2n[nH]c3ccc(NS(=O)(=O)c4ccccc4S(C)(=O)=O)cc23)cc1 [Example 63, N-[3-(4-Dimethylaminophenyl)-1H-indazol-5-yl]-2-methylsulfonylbenzenesulfonamide] | 0 | – | 46 |
| CS(=O)(=O)c1ccccc1S(=O)(=O)Nc1ccc2[nH]nc(-c3ccc(N)cc3)c2c1 [Example 70, N-[3-(4-Aminophenyl)-1H-indazol-5-yl]-2-methylsulfonylbenzenesulfonamide] | 71 | 154 | – |

| SMILES | inhibition at 10 µM [1] [%] | melting point [°C] | SRC % inhib at 10 μM [2] [%] |
| --- | --- | --- | --- |
| CS(=O)(=O)c1ccccc1S(=O)(=O)Nc1ccc2[nH]nc(-c3cccc(C#N)c3)c2c1 [Example 71, N-[3-(3-Cyanophenyl)-1H-indazol-5-yl]-2-methylsulfonylbenzenesulfonamide] | 83 | 240 | – |
| CS(=O)(=O)c1ccccc1S(=O)(=O)Nc1ccc2[nH]nc(/C=C/c3ccc(F)cc3)c2c1 [Example 74, N-{3-[(E)-2-(4-Fluorophenyl)vinyl]-1H-indazol-5-yl}-2-methylsulfonylbenzenesulfonamide] | 95 | 248 | – |
| CS(=O)(=O)c1ccccc1S(=O)(=O)Nc1ccc2[nH]nc(/C=C/c3ccc(Cl)cc3)c2c1 [Example 76, N-{3-[(E)-2-(4-Chlorophenyl)vinyl]-1H-indazol-5-yl}-2-methylsulfonylbenzenesulfonamide] | 92 | 247 | – |
| COC(=O)/C=C/c1n[nH]c2ccc(NS(=O)(=O)c3ccccc3S(C)(=O)=O)cc12 [Example 79, Methyl (E)-3-[5(2-methylsulfonylbenzenesulfonylamino)-1H-indazol-3-yl]-acrylate] | 50 | 253 | – |
| CS(=O)(=O)c1ccccc1S(=O)(=O)Nc1ccc2[nH]nc(-c3nc4ccccc4[nH]3)c2c1 [Example 81, N-[3-(1H-Benzimidazol-2-yl)-1H-indazol-5-yl]-2-methylsulfonylbenzenesulfonamide] | 93 | – | 100 |
| O=S(=O)(Nc1ccc2[nH]nc(-c3cc4ccccc4[nH]3)c2c1)c1ccccc1OC(F)(F)F [Example 84, N-[3-(1H-Indol-2-yl)-1H-indazol-5-yl]-2-trifluoromethoxybenzenesulfonamide] | 98 | 172 to 174 | – |
| CS(=O)(=O)c1ccccc1S(=O)(=O)Nc1ccc2[nH]nc(Sc3ccccc3)c2c1 [Example 88, 2-Methylsulfonyl-N-(3-phenylsulfanyl-1H-indazol-5-yl)-benzenesulfonamide] | 25 | 195 | – |
| CS(=O)(=O)c1ccccc1S(=O)(=O)Nc1ccc2[nH]nc(C#Cc3ccccc3)c2c1 [Example 89, 2-Methylsulfonyl-N-(3-phenylethynyl-1H-indazol-5-yl)-benzenesulfonamide] | 85 | 198 | – |
| Cc1cc2[nH]nc(-c3ccccc3)c2cc1NS(=O)(=O)c1ccccc1S(C)(=O)=O [Example 92, 2-Methylsulfonyl-N-(6-methyl-3-phenyl-1H-indazol-5-yl)-benzenesulfonamide] | 66 | 239 | – |
| CS(=O)(=O)c1ccc(F)cc1S(=O)(=O)Nc1ccc2[nH]nc(-c3ccccc3)c2c1 [Example 93, 5-Fluoro-2-methylsulfonyl-N-(3-phenyl-1H-indazol-5-yl)-benzenesulfonamide] | 83 | 224 | – |
| Nc1ccc(S(=O)(=O)Nc2ccc3[nH]nc(-c4ccccc4)c3c2)cc1 [Example 94, 4-Amino-N-(3-phenyl-1H-indazol-5-yl)benzenesulfonamide] | 88 | 249 | – |
| CC(=O)Nc1ccc(S(=O)(=O)Nc2ccc3[nH]nc(-c4ccccc4)c3c2)cc1 [Example 95, N-[4-(3-Phenyl-1H-indazol-5-ylsulfamoyl)phenyl]acetamide] | 34 | 167 | – |
| O=S(=O)(Nc1ccc2[nH]nc(-c3ccccc3)c2c1)C1CCNCC1 [Example 100, N-(3-Phenyl-1H-indazol-5-yl)-piperidine-4-sulfonamide] | 74 | 230 | – |
| O=S(=O)(Nc1ccc2[nH]nc(-c3ccccc3)c2c1)c1ccccc1C(F)(F)F [Example 109, N-(3-Phenyl-1H-indazol-5-yl)-2-trifluoromethylbenzene-sulfonamide] | 91 | – | 42 |
| O=S(=O)(Nc1ccc2[nH]nc(-c3ccccc3)c2c1)c1cccs1 [Example 110, N-(3-Phenyl-1H-indazol-5-yl)-thiophene-2-sulfonamide] | 91 | – | 45 |
| O=S(=O)(Nc1ccc2[nH]nc(-c3ccccc3)c2c1)c1ccccc1 [Example 112, N-(3-Phenyl-1H-indazol-5-yl)benzenesulfonamide] | 93 | – | 47 |
